We go through five molecules from PubChem BioAssay AID2060494 (Molecular Pharmacology Branch, DTP, NCI, 2025).
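Note: spheroids exposed to the agents for seven days before readout; percent of vehicle control viability with DMSO wells as 100%.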

The subject of the first test is 435261-313-R-J1-PDC complex spheroid viability. The experiment in a line: Anticancer human tumor 435261-313-R-J1-PDC patient-derived colon adenocarcinoma cell line growth inhibition [GQUAD]. As to conditions: second compound 0.0316 µM; first compound 3.16 µM; hits give low values. In a few lines: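 Multi-cell-type spheroids of tumor cells with HUVEC and mesenchymal stem cells, treated with drug combinations. Concentrations descend in half-log steps from near clinical Cmax, or from 10 microM where Cmax is unknown; viability read-out.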
Usually viability, T/C stands for the result in the treated group divided by that in the control group, in per cent. `CC1COCCN1c1cc(C2(S(C)(=N)=O)CC2)nc(-c2ccnc3[nH]ccc23)n1` (stereo unspecified) + CN(C)c1ccc(Nc2c3ccc(NC(=O)CCN4CCCC4)cc3nc3cc(NC(=O)CCN4CCCC4)ccc23)cc1: the viability, T/C is 69.2%.
On the same count and under the same terms, the value for `COc1ccc([C@@H](O)c2cc(-c3ncnc4cc(N5CCOCC5)ccc34)c(F)cc2Cl)nn1` + CN(C)c1ccc(Nc2c3ccc(NC(=O)CCN4CCCC4)cc3nc3cc(NC(=O)CCN4CCCC4)ccc23)cc1 was 56.6%; that for `O=C(c1cc(Cc2n[nH]c(=O)c3ccccc23)ccc1F)N1CCN(C(=O)C2CC2)CC1` + CN(C)c1ccc(Nc2c3ccc(NC(=O)CCN4CCCC4)cc3nc3cc(NC(=O)CCN4CCCC4)ccc23)cc1 was 123%.

The test is the same for the next values; noted with them: second compound 0.0316 µM; first compound 10 µM; hits give low values.
In the case of `CC(C)n1c(=O)n(C)c2cnc3cc(F)c(-c4ccc(OCCCN5CCCCC5)nc4)cc3c21` + CN(C)c1ccc(Nc2c3ccc(NC(=O)CCN4CCCC4)cc3nc3cc(NC(=O)CCN4CCCC4)ccc23)cc1, the viability, T/C is 59.1%.
On to `CC1COCCN1c1cc(-c2ccnn2C)c2ccnc(-c3ccn[nH]3)c2n1` (stereo unspecified) + CN(C)c1ccc(Nc2c3ccc(NC(=O)CCN4CCCC4)cc3nc3cc(NC(=O)CCN4CCCC4)ccc23)cc1, for which the viability, T/C was 25.2%.
For the molecule `CC1COCCN1c1cc(C2(S(C)(=N)=O)CC2)nc(-c2ccnc3[nH]ccc23)n1` (stereo unspecified) + CN(C)c1ccc(Nc2c3ccc(NC(=O)CCN4CCCC4)cc3nc3cc(NC(=O)CCN4CCCC4)ccc23)cc1, the viability, T/C was 70.7%.
Take `COc1ccc([C@@H](O)c2cc(-c3ncnc4cc(N5CCOCC5)ccc34)c(F)cc2Cl)nn1` + CN(C)c1ccc(Nc2c3ccc(NC(=O)CCN4CCCC4)cc3nc3cc(NC(=O)CCN4CCCC4)ccc23)cc1: the viability, T/C was 35.8%.
As to `O=C(c1cc(Cc2n[nH]c(=O)c3ccccc23)ccc1F)N1CCN(C(=O)C2CC2)CC1` + CN(C)c1ccc(Nc2c3ccc(NC(=O)CCN4CCCC4)cc3nc3cc(NC(=O)CCN4CCCC4)ccc23)cc1, the viability, T/C is 89.4%.

Still in this test, the particulars now being: second compound 0.1 µM; first compound 0.0316 µM; hits give low values.
Consider `CC(C)n1c(=O)n(C)c2cnc3cc(F)c(-c4ccc(OCCCN5CCCCC5)nc4)cc3c21` + CN(C)c1ccc(Nc2c3ccc(NC(=O)CCN4CCCC4)cc3nc3cc(NC(=O)CCN4CCCC4)ccc23)cc1, for which the viability, T/C is 75.2%.
Turning to `CC1COCCN1c1cc(-c2ccnn2C)c2ccnc(-c3ccn[nH]3)c2n1` (stereo unspecified) + CN(C)c1ccc(Nc2c3ccc(NC(=O)CCN4CCCC4)cc3nc3cc(NC(=O)CCN4CCCC4)ccc23)cc1, the viability, T/C is 88.4%.
As to `CC1COCCN1c1cc(C2(S(C)(=N)=O)CC2)nc(-c2ccnc3[nH]ccc23)n1` (stereo unspecified) + CN(C)c1ccc(Nc2c3ccc(NC(=O)CCN4CCCC4)cc3nc3cc(NC(=O)CCN4CCCC4)ccc23)cc1, the viability, T/C was 88.2%.
Still for that read-out and setting: the value for `COc1ccc([C@@H](O)c2cc(-c3ncnc4cc(N5CCOCC5)ccc34)c(F)cc2Cl)nn1` + CN(C)c1ccc(Nc2c3ccc(NC(=O)CCN4CCCC4)cc3nc3cc(NC(=O)CCN4CCCC4)ccc23)cc1 was 107%.
As for `O=C(c1cc(Cc2n[nH]c(=O)c3ccccc23)ccc1F)N1CCN(C(=O)C2CC2)CC1` + CN(C)c1ccc(Nc2c3ccc(NC(=O)CCN4CCCC4)cc3nc3cc(NC(=O)CCN4CCCC4)ccc23)cc1, the viability, T/C was 101%.

The test is the same for the next values; noted with them: second compound 0.1 µM; first compound 0.1 µM; hits give low values.
In the case of `CC(C)n1c(=O)n(C)c2cnc3cc(F)c(-c4ccc(OCCCN5CCCCC5)nc4)cc3c21` + CN(C)c1ccc(Nc2c3ccc(NC(=O)CCN4CCCC4)cc3nc3cc(NC(=O)CCN4CCCC4)ccc23)cc1, the viability, T/C is 99.2%.
On the same count and under the same terms, the value for `CC1COCCN1c1cc(-c2ccnn2C)c2ccnc(-c3ccn[nH]3)c2n1` (stereo unspecified) + CN(C)c1ccc(Nc2c3ccc(NC(=O)CCN4CCCC4)cc3nc3cc(NC(=O)CCN4CCCC4)ccc23)cc1 was 85.9%.
Still for that read-out and setting: the value for `CC1COCCN1c1cc(C2(S(C)(=N)=O)CC2)nc(-c2ccnc3[nH]ccc23)n1` (stereo unspecified) + CN(C)c1ccc(Nc2c3ccc(NC(=O)CCN4CCCC4)cc3nc3cc(NC(=O)CCN4CCCC4)ccc23)cc1 was 96.2%; that for `COc1ccc([C@@H](O)c2cc(-c3ncnc4cc(N5CCOCC5)ccc34)c(F)cc2Cl)nn1` + CN(C)c1ccc(Nc2c3ccc(NC(=O)CCN4CCCC4)cc3nc3cc(NC(=O)CCN4CCCC4)ccc23)cc1 was 100%; that for `O=C(c1cc(Cc2n[nH]c(=O)c3ccccc23)ccc1F)N1CCN(C(=O)C2CC2)CC1` + CN(C)c1ccc(Nc2c3ccc(NC(=O)CCN4CCCC4)cc3nc3cc(NC(=O)CCN4CCCC4)ccc23)cc1 was 83.7%.

The same test, now with this note: second compound 0.1 µM; first compound 0.316 µM; hits give low values.
Regarding `CC(C)n1c(=O)n(C)c2cnc3cc(F)c(-c4ccc(OCCCN5CCCCC5)nc4)cc3c21` + CN(C)c1ccc(Nc2c3ccc(NC(=O)CCN4CCCC4)cc3nc3cc(NC(=O)CCN4CCCC4)ccc23)cc1, the viability, T/C is 97.7%.
On the same count and under the same terms, the value for `CC1COCCN1c1cc(-c2ccnn2C)c2ccnc(-c3ccn[nH]3)c2n1` (stereo unspecified) + CN(C)c1ccc(Nc2c3ccc(NC(=O)CCN4CCCC4)cc3nc3cc(NC(=O)CCN4CCCC4)ccc23)cc1 was 55.9%; that for `CC1COCCN1c1cc(C2(S(C)(=N)=O)CC2)nc(-c2ccnc3[nH]ccc23)n1` (stereo unspecified) + CN(C)c1ccc(Nc2c3ccc(NC(=O)CCN4CCCC4)cc3nc3cc(NC(=O)CCN4CCCC4)ccc23)cc1 was 106%.
`COc1ccc([C@@H](O)c2cc(-c3ncnc4cc(N5CCOCC5)ccc34)c(F)cc2Cl)nn1` + CN(C)c1ccc(Nc2c3ccc(NC(=O)CCN4CCCC4)cc3nc3cc(NC(=O)CCN4CCCC4)ccc23)cc1: the viability, T/C is 85.3%.
As for `O=C(c1cc(Cc2n[nH]c(=O)c3ccccc23)ccc1F)N1CCN(C(=O)C2CC2)CC1` + CN(C)c1ccc(Nc2c3ccc(NC(=O)CCN4CCCC4)cc3nc3cc(NC(=O)CCN4CCCC4)ccc23)cc1, the viability, T/C is 118%.

Staying with this test, now noted: second compound 0.1 µM; first compound 1 µM; hits give low values.
On to `CC(C)n1c(=O)n(C)c2cnc3cc(F)c(-c4ccc(OCCCN5CCCCC5)nc4)cc3c21` + CN(C)c1ccc(Nc2c3ccc(NC(=O)CCN4CCCC4)cc3nc3cc(NC(=O)CCN4CCCC4)ccc23)cc1, for which the viability, T/C was 71.3%.
Regarding `CC1COCCN1c1cc(-c2ccnn2C)c2ccnc(-c3ccn[nH]3)c2n1` (stereo unspecified) + CN(C)c1ccc(Nc2c3ccc(NC(=O)CCN4CCCC4)cc3nc3cc(NC(=O)CCN4CCCC4)ccc23)cc1, the viability, T/C is 38.5%.
As to `CC1COCCN1c1cc(C2(S(C)(=N)=O)CC2)nc(-c2ccnc3[nH]ccc23)n1` (stereo unspecified) + CN(C)c1ccc(Nc2c3ccc(NC(=O)CCN4CCCC4)cc3nc3cc(NC(=O)CCN4CCCC4)ccc23)cc1, the viability, T/C is 79.1%.
